Values quoted from earlier work, collected in patent US20050272804A1, “Methods of delaying Alzheimer's disease progression using a beta-amyloid precursor protein inhibitor and a HMG CoA reductase inhibitor” (priority 2004, published 2005).

Key:
NOS = conditions: Tg mice, 2.5 mg/kg, i.p., brain extracts
AChE = target: T1, AChE (Rattus norvegicus, UniProt P37136); conditions: rats, after phenserine administration
T1 construct: from tissue
T1 sequence (P37136 32-614): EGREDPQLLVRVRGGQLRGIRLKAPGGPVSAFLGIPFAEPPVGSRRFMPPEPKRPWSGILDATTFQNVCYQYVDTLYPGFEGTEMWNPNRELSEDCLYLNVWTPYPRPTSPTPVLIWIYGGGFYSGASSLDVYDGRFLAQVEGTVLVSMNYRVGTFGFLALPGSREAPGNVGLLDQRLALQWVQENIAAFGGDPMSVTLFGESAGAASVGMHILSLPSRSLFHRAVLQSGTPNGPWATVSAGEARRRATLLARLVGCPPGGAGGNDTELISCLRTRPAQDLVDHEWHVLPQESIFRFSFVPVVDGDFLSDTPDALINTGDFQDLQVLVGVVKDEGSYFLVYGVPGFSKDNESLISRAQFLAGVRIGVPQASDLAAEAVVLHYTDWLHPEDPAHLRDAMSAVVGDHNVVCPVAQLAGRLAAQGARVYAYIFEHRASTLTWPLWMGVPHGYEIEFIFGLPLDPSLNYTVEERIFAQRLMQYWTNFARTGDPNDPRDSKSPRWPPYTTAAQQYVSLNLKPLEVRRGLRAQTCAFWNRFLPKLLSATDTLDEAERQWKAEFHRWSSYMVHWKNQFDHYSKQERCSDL

Aβ = conditions: Tg mice, 2.5 mg/kg, i.p.
[1] = tested on: brain extracellular acetylcholine (ACh); conditions: striatal microdialysis, conscious freely-moving rats
neuronal NOS (nNOS) = conditions: Tg mice, 2.5 mg/kg, i.p., brain extracts
[2] = rats, i.v. dosing

Compound	NOS activity, treated vs control Tg groups (NOS)	half-life of AChE inhibition (AChE) [h]	inhibition of AChE (AChE) [%]	lowering of brain Aβ levels (Aβ)	rise in brain ACh levels [1]	levels of nNOS protein (neuronal NOS (nNOS))	brain drug levels relative to plasma [2] [fold]	time to peak drug level ([2]; brain and plasma) [min]	anticholinesterase activity (cholinesterase)
CN1CC[C@@]2(C)c3cc(OC(=O)Nc4ccccc4)ccc3N(C)C12 (single isomer, unassigned) [phenserine]	no significant difference	> 8.25	> 70	approximately 50%	greater than 3 fold	increased	10	≤ 5	
CN1CC[C@]2(C)c3cc(OC(=O)Nc4ccccc4)ccc3N(C)C12 (single isomer, unassigned; (+)) [(+)-Penserine]									minimal
